The source made the active and inactive calls. The calls are words filed in the database; no cut-off is given here. Where a SMILES comes first, the peptide text is derived from it. The star is where a group is joined. Paclitaxel(2'-O-succinyl) = CC(=O)O[C@H]1C(=O)[C@@]2(C)[C@H]([C@H](OC(=O)c3ccccc3)[C@]3(O)C[C@H](OC(=O)[C@H](OC(=O)CCC(=O)*)[C@@H](NC(=O)c4ccccc4)c4ccccc4)C(C)=C1C3(C)C)[C@]1(OC(C)=O)CO[C@@H]1C[C@@H]2O
How the values were obtained:
[1] = test system: MDA-MB-468; test: Antitumor activity in human […] cells xenografted in Balb/c mouse assessed as tumor weight at 2.4 micromol/kg, ip measured after 28 days (reference value: 0.43 g); assay type: functional; conditions: dose 2.4 µmol/kg, time 28 day
[2] = test system: MDA-MB-468; test: Antiproliferative activity against ACE-positive human MDA-MB-468 cells incubated for 48 hrs by MTT assay; assay type: functional, cell-based; conditions: MDA-MB-468, 48 h
[3] = Acute toxicity in BALB/c mouse assessed as survival at 80 mg/kg, ip measured for 15 days; assay type: organism-based; conditions: in vivo, 360 h, time 15 day
[4] = test system: Mus musculus; test: Toxicity in BALB/c mouse xenografted with human […] cells assessed as decrease in body weight at 2.4 micromol/kg, ip measured after 28 days relative to control; assay type: organism-based; set-up: scale not given: the % may be the effect or the level left; conditions: 672 h, at 2.4 µmol/kg, time 28 day
[5] = Stability of the compound in PBS buffer assessed as half life at 10 uM measured after 72 hrs by LC/MS analysis; assay type: physicochemical
[6] = Drug uptake in BALB/c mouse xenografted with human […] cells assessed as PTX level in tumor at 17.6 micromol/kg, ip measured after 1 hr; assay type: ADME, organism-based, Neoplasm; conditions: in vivo, dose 17.6 µmol/kg
[7] = Acute toxicity in BALB/c mouse assessed as rate of weight loss at 60 mg/kg, ip measured for 15 days; assay type: organism-based; conditions: in vivo, 360 h, time 15 day
[8] = test system: HEK-293T; test: Antiproliferative activity against human HEK293T cells expressing ACE containing plasmid incubated for 48 hrs by MTT assay; assay type: functional, cell-based
[9] = Drug uptake in BALB/c mouse xenografted with human […] cells assessed as PTX level in liver at 17.6 micromol/kg, ip measured after 15 mins to 24 hrs; assay type: ADME, organism-based; conditions: in vivo, 0.25 h, dose 17.6 µmol/kg
[10] = test system: Mus musculus; test: Toxicity in BALB/c mouse xenografted with human […] cells assessed as decrease in body weight at 9.6 micromol/kg, ip measured after 28 days relative to control; assay type: organism-based; set-up: scale not given: the % may be the effect or the level left; conditions: 672 h, at 9.6 µmol/kg, time 28 day
[11] = Stability of the compound in rat plasma assessed as drug residual at 10 uM measured after 48 hrs by LC/MS analysis; assay type: ADME, cell-free; conditions: read-out: Stability
[12] = Drug uptake in human MDA-MB-468 cells assessed as increase in PTX uptake rate at 10 to 20 uM measured after 2 hrs; assay type: ADME, cell-based; conditions: mda-mb-468, 2 h, dose 10-20 µM
[13] = Stability of the compound in rat plasma assessed as half life at 10 uM measured after 72 hrs by LC/MS analysis; assay type: ADME, cell-free
[14] = test system: MDA-MB-468; test: Antitumor activity in human […] cells xenografted in Balb/c mouse assessed as reduction in tumor growth at 2.4 micromol/kg, ip measured after 4 days; assay type: functional, organism-based; conditions: dose 2.4 µmol/kg, time 4.0 day
[15] = Drug uptake in BALB/c mouse xenografted with human […] cells assessed as PTX level in tumor at 17.6 micromol/kg, ip measured after 4 hrs; assay type: ADME, organism-based, Neoplasm; conditions: in vivo, dose 17.6 µmol/kg
[16] = Acute toxicity in BALB/c mouse assessed as survival at 100 mg/kg, ip measured for 15 days; assay type: organism-based; conditions: in vivo, 360 h, time 15 day
[17] = test system: MDA-MB-231; test: Induction of apoptosis in ACE-positive human MDA-MB-231 cells assessed as increase in apoptotic cells at 10 nM measured after 48 hrs by Annexin V-FITC/PI staining based fluorescence microscopy; assay type: functional, cell-based
[18] = test system: HEK-293T; test: Antiproliferative activity against ACE-negative human HEK293T cells incubated for 48 hrs by MTT assay; assay type: functional, cell-based
[19] = Acute toxicity in BALB/c mouse assessed as rate of weight loss at 80 mg/kg, ip measured for 15 days; assay type: organism-based; conditions: in vivo, 360 h, time 15 day
[20] = test system: HEK-293T; test: Potency index, ratio of PTX IC50 to test compound IC50 antiproliferative activity against ACE-negative human HEK293T cells incubated for 48 hrs by MTT assay; assay type: functional
[21] = test system: MDA-MB-468; test: Antitumor activity in human […] cells xenografted in Balb/c mouse assessed as tumor weight at 9.6 micromol/kg, ip measured after 28 days (reference value: 0.43 g); assay type: functional; conditions: dose 9.6 µmol/kg, time 28 day
[22] = Drug uptake in BALB/c mouse xenografted with human […] cells assessed as PTX level in kidney at 17.6 micromol/kg, ip measured after 15 mins to 24 hrs; assay type: ADME, organism-based; conditions: in vivo, 0.25 h, dose 17.6 µmol/kg
[23] = test system: Mus musculus; test: Toxicity in BALB/c mouse xenografted with human […] cells assessed as reduction in WBC count at 9.6 micromol/kg, ip measured after 28 days relative to control; assay type: organism-based; set-up: scale not given: the % may be the effect or the level left; conditions: 672 h, at 9.6 µmol/kg, time 28 day
[24] = test system: MDA-MB-468; test: Antitumor activity in human […] cells xenografted in Balb/c mouse assessed as reduction in tumor growth at 9.6 micromol/kg, ip measured after 28 days relative to control; assay type: functional; set-up: scale not given: the % may be the effect or the level left; conditions: dose 9.6 µmol/kg, time 28 day
[25] = target: Angiotensin-converting enzyme (Homo sapiens, UniProt P12821); test: Binding affinity to human recombinant ACE protein assessed as dissociation constant incubated for 15 mins by […] binding analysis
Chain of Angiotensin-converting enzyme (P12821 whole entry): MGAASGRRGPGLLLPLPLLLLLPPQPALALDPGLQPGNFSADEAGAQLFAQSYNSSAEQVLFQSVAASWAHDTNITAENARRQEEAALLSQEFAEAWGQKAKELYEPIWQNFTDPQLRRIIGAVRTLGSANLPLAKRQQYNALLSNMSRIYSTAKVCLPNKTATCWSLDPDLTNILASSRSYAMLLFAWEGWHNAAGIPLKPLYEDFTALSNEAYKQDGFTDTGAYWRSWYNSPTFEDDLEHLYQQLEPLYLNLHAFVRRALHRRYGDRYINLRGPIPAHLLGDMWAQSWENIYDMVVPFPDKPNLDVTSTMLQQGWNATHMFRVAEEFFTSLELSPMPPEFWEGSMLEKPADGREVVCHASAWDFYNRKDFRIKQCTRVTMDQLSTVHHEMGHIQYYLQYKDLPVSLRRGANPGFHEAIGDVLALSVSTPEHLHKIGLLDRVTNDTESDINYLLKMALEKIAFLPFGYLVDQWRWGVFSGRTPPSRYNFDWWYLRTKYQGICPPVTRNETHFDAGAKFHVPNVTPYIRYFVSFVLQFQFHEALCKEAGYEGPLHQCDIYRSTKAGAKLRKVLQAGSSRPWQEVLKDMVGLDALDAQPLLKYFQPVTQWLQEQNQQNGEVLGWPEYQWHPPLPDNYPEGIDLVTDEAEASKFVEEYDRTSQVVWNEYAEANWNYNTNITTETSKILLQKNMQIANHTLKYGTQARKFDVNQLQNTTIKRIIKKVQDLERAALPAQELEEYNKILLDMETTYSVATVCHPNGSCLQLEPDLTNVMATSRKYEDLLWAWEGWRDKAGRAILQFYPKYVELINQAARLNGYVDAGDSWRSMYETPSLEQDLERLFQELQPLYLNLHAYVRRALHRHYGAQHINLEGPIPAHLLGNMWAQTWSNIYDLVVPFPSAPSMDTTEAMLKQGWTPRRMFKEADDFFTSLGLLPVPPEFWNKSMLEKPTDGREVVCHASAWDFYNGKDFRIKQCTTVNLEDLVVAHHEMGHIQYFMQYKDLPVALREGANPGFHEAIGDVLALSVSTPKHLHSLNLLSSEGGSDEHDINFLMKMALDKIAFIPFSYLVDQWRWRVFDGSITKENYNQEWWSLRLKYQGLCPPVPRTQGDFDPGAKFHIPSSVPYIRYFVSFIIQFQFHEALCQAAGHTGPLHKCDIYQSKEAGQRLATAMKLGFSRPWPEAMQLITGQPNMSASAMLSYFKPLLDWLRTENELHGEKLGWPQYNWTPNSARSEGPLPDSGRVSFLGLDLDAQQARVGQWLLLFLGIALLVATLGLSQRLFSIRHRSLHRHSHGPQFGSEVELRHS

[26] = test system: MDA-MB-231; test: Antiproliferative activity against ACE-positive human MDA-MB-231 cells incubated for 48 hrs by MTT assay; assay type: functional, cell-based; conditions: MDA-MB-231, 48 h
[27] = Acute toxicity in BALB/c mouse assessed as rate of weight loss at 100 mg/kg, ip measured for 15 days; assay type: organism-based; conditions: in vivo, 360 h, time 15 day
[28] = Acute toxicity in BALB/c mouse assessed as survival at 60 mg/kg, ip measured for 15 days; assay type: organism-based; conditions: in vivo, 360 h, time 15 day
[29] = test system: MDA-MB-468; test: Potency index, ratio of PTX IC50 to test compound IC50 antiproliferative activity against ACE-positive human MDA-MB-468 cells incubated for 48 hrs by MTT assay; assay type: functional
[30] = test system: MDA-MB-468; test: Induction of apoptosis in ACE-positive human MDA-MB-468 cells assessed as increase in apoptotic cells at 10 nM measured after 48 hrs by Annexin V-FITC/PI staining based fluorescence microscopy; assay type: functional, cell-based
[31] = test system: MDA-MB-468; test: Antitumor activity in human […] cells xenografted in Balb/c mouse assessed as reduction in tumor growth at 2.4 micromol/kg, ip measured after 28 days relative to control; assay type: functional; set-up: scale not given: the % may be the effect or the level left; conditions: dose 2.4 µmol/kg, time 28 day
[32] = test system: Mus musculus; test: Toxicity in BALB/c mouse xenografted with human […] cells assessed as reduction in WBC count at 2.4 micromol/kg, ip measured after 28 days relative to control; assay type: organism-based; set-up: scale not given: the % may be the effect or the level left; conditions: 672 h, at 2.4 µmol/kg, time 28 day
[33] = test system: MDA-MB-231; test: Potency index, ratio of PTX IC50 to test compound IC50 antiproliferative activity against ACE-positive human MDA-MB-231 cells incubated for 48 hrs by MTT assay; assay type: functional
[34] = Drug uptake in BALB/c mouse xenografted with human […] cells assessed as PTX level in lung at 17.6 micromol/kg, ip measured after 15 mins to 24 hrs; assay type: ADME, organism-based; conditions: in vivo, 0.25 h, dose 17.6 µmol/kg
[35] = Stability of the compound in rat plasma assessed as drug residual at 10 uM measured after 72 hrs by LC/MS analysis; assay type: ADME, cell-free; conditions: read-out: Stability
[36] = Stability of the compound in PBS buffer assessed as drug residual at 10 uM measured after 72 hrs by LC/MS analysis; assay type: physicochemical; conditions: read-out: Stability
[37] = Acute toxicity in BALB/c mouse assessed as rate of weight loss at 20 mg/kg, ip measured for 15 days; assay type: organism-based; conditions: in vivo, 360 h, time 15 day
[38] = Acute toxicity in BALB/c mouse assessed as rate of weight loss at 15 mg/kg, ip measured for 15 days; assay type: organism-based; conditions: in vivo, 360 h, time 15 day
[39] = Drug uptake in BALB/c mouse xenografted with human […] cells measured in tumor at 17.6 micromol/kg, ip measured after 1 hr; assay type: ADME, organism-based, Neoplasm; conditions: dose 17.6 µmol/kg, read-out: Drug uptake
[40] = Acute toxicity in BALB/c mouse assessed as survival at 20 mg/kg, ip measured for 15 days; assay type: organism-based; conditions: in vivo, 360 h, time 15 day
[41] = test system: MDA-MB-231; test: Induction of apoptosis in ACE-positive human MDA-MB-231 cells assessed as increase in early apoptotic cells by measuring fragmented nuclei at 10 nM after 48 hrs by DAPI staining based fluorescence microscopy; assay type: functional, cell-based
[42] = Drug uptake in BALB/c mouse xenografted with human […] cells measured in tumor at 17.6 micromol/kg, ip measured after 4 hrs; assay type: ADME, organism-based, Neoplasm; conditions: dose 17.6 µmol/kg, read-out: Drug uptake
[43] = Acute toxicity in BALB/c mouse assessed as survival at 15 mg/kg, ip measured for 15 days; assay type: organism-based; conditions: in vivo, 360 h, time 15 day
[44] = test system: Mus musculus; test: Toxicity in BALB/c mouse xenografted with human […] cells assessed as body weight loss at 2.4 micromol/kg, ip measured upto 24 days; assay type: organism-based; conditions: 576 h, dose 2.4 µmol/kg, time < 24 day

In the case of CC[C@H](C)[C@H](NC(=O)[C@H](CCC(N)=O)NC(=O)[C@@H]1CCCN1C(=O)[C@H](CCCNC(=N)N)NC(=O)[C@@H]1CCCN1C(=O)[C@H](Cc1c[nH]c2ccccc12)NC(=O)[C@H](CCC(=O)O)NC(=O)CCC(=O)O[C@@H](C(=O)O[C@H]1C[C@@]2(O)[C@@H](OC(=O)c3ccccc3)[C@@H]3[C@]4(OC(C)=O)CO[C@@H]4C[C@H](O)[C@@]3(C)C(=O)[C@H](OC(C)=O)C(=C1C)C2(C)C)[C@@H](NC(=O)c1ccccc1)c1ccccc1)C(=O)N1CCC[C@H]1C(=O)N1CCC[C@H]1C(N)=O ({Paclitaxel(2'-O-succinyl)}-EWPRPQIPP-NH2), the Activity [1] is reported as 0.2 g, the IC50 [2] is reported as 12.3 nM and the Activity [3] is reported as “Non-Toxic”. For the same compound, the Activity [4] was 2.8%, the half-life at 10 µM [5] was 57.8 h and the Drug uptake [6] was 18067 ng/g. For the same compound, the Activity [7] was 1.9%, the Activity [8] was “Active” and the Drug uptake [9] was “Active”. The Activity [10] was 6.4%, the remaining at 48 h, 10 µM [11] was 0.169% and the Drug uptake [12] was “Active”. For the same compound, the half-life at 10 µM [13] was 5.82 h, the Activity [14] was “inactive” and the Drug uptake [15] was 10458 ng/g. For the same compound, the Activity [16] was “Non-Toxic”, the Activity [17] was “Active” and the IC50 [18] was 616 nM. For the same compound, the Activity [19] was 4.5%, the “Ratio IC50” value [20] was 91.9 and the Activity [21] was 0.16 g. The Drug uptake [22] was “Active”, the Activity [23] was 22% and the Activity [24] was 62%. The Kd ([25]; read-out: Kd) was 380 nM, the IC50 [26] was 9.5 nM and the Activity [27] was 7.2%. For the same compound, the Activity [28] was “Non-Toxic”, the “Ratio IC50” value [29] was 4.1 and the Activity [30] was “Active”. For the same compound, the Activity [31] was 54%, the Activity [32] was 17% and the “Ratio IC50” value [33] was 3.1. The Drug uptake [34] was “Active”.
For CC(=O)O[C@H]1C(=O)[C@@]2(C)[C@H]([C@H](OC(=O)c3ccccc3)[C@]3(O)C[C@H](OC(=O)[C@H](O)[C@@H](NC(=O)c4ccccc4)c4ccccc4)C(C)=C1C3(C)C)[C@]1(OC(C)=O)CO[C@@H]1C[C@@H]2O [PACLITAXEL], the Activity [1] was 0.26 g, the remaining at 72 h, 10 µM [35] was 47.6% and the IC50 [2] was 3 nM. The remaining at 72 h, 10 µM [36] was 70.3%, the Activity [37] was 8.7% and the Activity [38] was 4%. For the same compound, the concentration at 1 h [39] was 6470 ng/g, the Activity [14] was “inactive” and the Activity [40] was “Non-Toxic”. The Activity [17] was “Active”, the IC50 [18] was 6.7 nM and the Activity [41] was “Active”. The Activity [24] was 30%, the Kd [25] was “Not Active” and the IC50 [26] was 3.1 nM. The concentration at 4 h [42] was 2250 ng/g, the Activity [43] was “Non-Toxic” and the Activity [44] was “Non-Toxic”. For the same compound, the Activity [30] was “Active”, the Activity [31] was 15% and the Activity [32] was 6.2%.
